According to patent US20230399320A1, “NOVEL CAPSID ASSEMBLY INHIBITOR” (Pelemed Co., Ltd., priority 2020, published 2023):
Like-named read-outs stand apart in the source and are kept apart here.

Legend:
HBV DNA = test: Quantitative PCR for measuring HBV DNA in cells (HBV DNA quantification); type: cell-based
Procedure: After treating cells with the indicated compounds, HBV DNA secreted into the medium and intracellular HBV DNA were extracted, purified, and quantified by quantitative PCR. To isolate the secreted HBV DNA, the culture medium was recovered and centrifuged at 15,000×g to remove debris. The medium was diluted 1:1 with phosphate-buffered saline (PBS), and 1 M NaOH solution was added to a final concentration of 0.1 M. The mixture was incubated at 37° C. for 1 hour. The protein was denatured by adding 2M Tris-HCl solution (pH 7.5) to a final concentration of 0.2 M and incubating at 98° C. for 5 minutes. The protein precipitation was removed by centrifugation at 15,000×g, and the supernatant was subjected to PCR with HBV DNA primer and probe sets:
Forward: 5′-[…]-3′, Reverse: 5′-[…]-3′, Probe: 5′-[…]-3′.

[1] = biological target: T1, Cp149 (truncated form of a HBV core protein) (Hepatitis B virus genotype D subtype ayw, UniProt P03146); test: Protein based assay: immunoblot analysis of in vitro HBV capsid assembly; type: biochemical; conditions: for inhibition at 10 µM: read-out: Protein based assay (% inhibition, 10 μM); for inhibition at 0.1 µM: read-out: Protein based assay (% inhibition), 0.1 μM; for inhibition at 1 µM: read-out: Protein based assay (% inhibition), 1 μM
T1 construct: Cp149 (amino acids 1-149) is a truncated form of a HBV core protein; histidine tag (cleaved yes); made in house; host or cells: Escherichia coli BL21(DE3)
T1 sequence (P03146 1-149): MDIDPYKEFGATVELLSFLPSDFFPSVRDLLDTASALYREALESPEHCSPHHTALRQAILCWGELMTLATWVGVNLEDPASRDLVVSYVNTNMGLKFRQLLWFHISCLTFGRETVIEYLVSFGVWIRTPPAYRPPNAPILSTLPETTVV
Procedure: Cp149 (amino acids 1-149) is a truncated form of a HBV core protein. It was expressed in Escherichia coli, and the expressed protein was purified. The recombinant Cp149 was expressed in E. coli BL21(DE3) cells cultured in LB medium at 37° C. When the culture reached an OD600 of 0.7 to 0.8, expression of the culture was induced with 0.5 mM isopropyl-β-d-thiogalactopyranoside and the culture was cooled to 16° C. After 16 hours, the cells were harvested, flash-frozen in liquid nitrogen, and stored at −80° C. To purify Cp149, thawed cells were resuspended in lysis buffer (20 mM Tris-HCl pH 9.0, 200 mM NaCl, 10 mM imidazole, 10 μg per mL DNaseI, 1 mM phenylmethylsulfonyl fluoride), and treated with ultrasonic waves. The supernatant was loaded onto Ni-NTA affinity resin. Proteins were eluted using a 20 mM to 500 mM imidazole gradient dissolved in lysis buffer. After removing the histidine tag with thrombin, the protein was further purified by HiTrap Q anion exchange chromatography (17115401, GE Healthcare).
To determine the effect on in vitro Cp149 assembly, compounds of the present invention were added to the Cp149-containing suspension. The final concentration of Cp149 was 1 mg per mL, and the compounds of the present invention were added at concentrations of 0.1 to 10 μM. The suspension was mixed with reaction buffer (150 mM HEPES, pH 7.5, 15 mM NaCl) added in a 2:1 ratio. In vitro assembly was performed at 37° C. for 1 hour, and HBV capsid was detected by immunoblot analysis using an anti-HBV core antibody (1:2000, B0586, Dako).

[2] = Hepatitis B virus, read-out: HBV DNA quantification (IC50 μM)
[3] = Hepatitis B virus, read-out: HBV DNA quantification
[4] = Hepatitis B virus; read-out: HBV DNA quantification (IC50 μM)

| Structure (SMILES) | IC50 (HBV DNA; [2]) | inhibition at 10 µM [1] | IC50 (HBV DNA; [3]) | IC50 (HBV DNA; [4]) | inhibition at 0.1 µM [1] | inhibition at 1 µM [1] | IC50 [1] |
| --- | --- | --- | --- | --- | --- | --- | --- |
| CS(=O)(=O)c1nc(Cl)cc(Nc2ccc(F)cc2F)n1 [Compound 16a, 6-chloro-N-(2,4-difluorophenyl)-2-(methylsulfonyl)pyrimidin-4-amine] | > 10 µM | 85% |  |  |  |  |  |
| COc1ncccc1C(=O)NCCNc1cc(Nc2ccc(F)c(F)c2)nc(SC)n1 [Compound 8f, N-(2-(6-(3,4-difluorophenylamino)-2-(methylthio)pyrimidin-4-ylamino)ethyl)-2-methoxynicotinamide] |  | 37% | > 10 µM |  |  |  |  |
| COc1ncccc1C(=O)NCCNc1cc(Nc2ccccc2)nc(SC)n1 [Compound 8a, 2-methoxy-N-(2-(2-(methylthio)-6-(phenylamino)pyrimidin-4-ylamino)ethyl)nicotinamide] |  | 0% | > 10 µM |  |  |  |  |
| COc1ncccc1C(=O)N1CCN(c2cc(Nc3ccc(N4CCOCC4)cc3)nc(SC)n2)CC1 [Compound 13, (2-methoxypyridin-3-yl)(4-(2-(methylthio)-6-(4-morpholinophenylamino)pyrimidin-4-yl)piperazin-1-yl)methanone] |  | 31% |  | > 10 µM |  |  |  |
| CS(=O)(=O)c1nc(Nc2ccc(F)c(Br)c2)cc(N2CCC(N)CC2)n1 [Compound 26j, 6-(4-aminopiperidin-1-yl)-N-(3-bromo-4-fluorophenyl)-2-(methylsulfonyl)pyrimidin-4-amine] |  |  |  | 0.48 µM | 10% | 98% |  |
| CS(=O)(=O)c1nc(Nc2ccc(F)c(Br)c2)cc(NC2CCNCC2)n1 [Compound 26g, N^4-(3-bromo-4-fluorophenyl)-2-(methylsulfonyl)-N^6-(piperidin-4-yl)pyrimidine-4,6-diamine] |  |  |  | 0.536 µM | 7% | 97% |  |
| COc1ncccc1C(=O)NCCNc1cc(Nc2ccc(F)cc2)nc([S+](C)[O-])n1 (centres unmarked) [Compound 9b, N-(2-(6-(4-fluorophenylamino)-2-(methylsulfinyl)pyrimidin-4-ylamino)ethyl)-2-methoxynicotinamide] |  |  |  | 0.21 µM | 32% | 83% |  |
| CC(C)(C)OC(=O)N1CCN(c2cc(Nc3ccc(F)cc3)nc(S(C)(=O)=O)n2)CC1 [Compound 22a, tert-butyl 4-(6-(4-fluorophenylamino)-2-(methylsulfonyl)pyrimidin-4-yl)piperazine-1-carboxylate] | 0.831 µM | 68% |  |  |  |  |  |
| COc1cncc(C(=O)NCCNc2cc(Nc3ccc(N4CCOCC4)cc3)nc([S+](C)[O-])n2)c1 (centres unmarked) [Compound 5b, 5-methoxy-N-(2-(2-(methylsulfinyl)-6-(4-morpholinophenylamino)pyrimidin-4-ylamino)ethyl)nicotinamide] |  | 78% |  | > 10 µM |  |  |  |
| COc1ncccc1C(=O)NCCNc1cc(Nc2ccc(Br)cc2)nc(SC)n1 [Compound 8d, N-(2-(6-(4-bromophenylamino)-2-(methylthio)pyrimidin-4-ylamino)ethyl)-2-methoxynicotinamide] |  | 76% | > 10 µM |  |  |  |  |
| COc1ncccc1C(=O)NCCNc1cc(Nc2ccc(Br)cc2)nc([S+](C)[O-])n1 (centres unmarked) [Compound 9d, N-(2-(6-(4-bromophenylamino)-2-(methylsulfinyl)pyrimidin-4-ylamino)ethyl)-2-methoxynicotinamide] | 0.177 µM |  |  |  | 27% | 82% |  |
| CC(C)(C)OC(=O)N1CCN(c2cc(NCc3cc(F)c(F)c(F)c3)nc(S(C)(=O)=O)n2)CC1 [Compound 22l, tert-butyl 4-(2-(methylsulfonyl)-6-(3,4,5-trifluorobenzylamino)pyrimidin-4-yl)piperazine-1-carboxylate] | 1.02 µM | 89% |  |  |  |  |  |
| CS(=O)(=O)c1nc(Nc2ccc(F)c(Br)c2)cc(N2CCNCC2)n1 [Compound 26d, N-(3-bromo-4-fluorophenyl)-2-(methylsulfonyl)-6-(piperazin-1-yl)pyrimidin-4-amine] |  |  |  | 0.547 µM | 13% | 98% |  |
| CS(=O)(=O)c1nc(Nc2cc(F)c(F)c(F)c2)cc(N2CCNCC2)n1 [Compound 26b, 2-(methylsulfonyl)-6-(piperazin-1-yl)-N-(3,4,5-trifluorophenyl)pyrimidin-4-amine] |  |  |  | 0.203 µM | 39% | 92% |  |
| COc1ncccc1C(=O)NCCNc1cc(Nc2ccc(N3CCOCC3)cc2)nc([S+](C)[O-])n1 (centres unmarked) [Compound 5a, 2-methoxy-N-(2-(2-(methylsulfinyl)-6-(4-morpholinophenylamino)pyrimidin-4-ylamino)ethyl)nicotinamide] |  | 95% |  | 0.402 µM | 43% | 83% | 5300 nM |
| COc1ncccc1C(=O)NCCNc1cc(Nc2ccc(F)cc2Cl)nc([S+](C)[O-])n1 (centres unmarked) [Compound 9h, N-(2-(6-(2-chloro-4-fluorophenylamino)-2-(methylsulfinyl)pyrimidin-4-ylamino)ethyl)-2-methoxynicotinamide] | > 10 µM | 43% |  |  |  |  |  |
| CSc1nc(N)cc(N(CCc2ccc(F)cc2)c2ccc(N3CCOCC3)cc2)n1 [Compound 11b, N^4-(4-fluorophenethyl)-2-(methylthio)-N^4-(4-morpholinophenyl)pyrimidine-4,6-diamine] |  | 74% |  | > 10 µM |  |  |  |
| CC(C)(C)OC(=O)N1CCN(c2cc(Nc3ccc(Cl)cc3)nc(S(C)(=O)=O)n2)CC1 [Compound 22c, tert-butyl 4-(6-(4-chlorophenylamino)-2-(methylsulfonyl)pyrimidin-4-yl)piperazine-1-carboxylate] | 0.577 µM | 68% |  |  |  |  |  |
| CSc1nc(N)cc(N(Cc2ccc(F)cc2)c2ccc(N3CCOCC3)cc2)n1 [Compound 11a, N^4-(4-fluorobenzyl)-2-(methylthio)-N^4-(4-morpholinophenyl)pyrimidine-4,6-diamine] |  | 71% |  | > 10 µM |  |  |  |
| CS(=O)(=O)c1nc(Nc2cc(F)c(F)c(F)c2)cc(Nc2cc(F)c(F)c(F)c2)n1 [Compound 18b, 2-(methylsulfonyl)-N^4,N^6-bis(3,4,5-trifluorophenyl)pyrimidine-4,6-diamine] |  | 69% |  | 1.02 µM |  |  |  |
| CS(=O)(=O)c1nc(Nc2cc(F)c(F)c(F)c2)cc(NC2CCNCC2)n1 [Compound 26e, 2-(methylsulfonyl)-N^4-(piperidin-4-yl)-N^6-(3,4,5-trifluorophenyl)pyrimidine-4,6-diamine] |  |  |  | 0.19 µM | 16% | 90% |  |
| COc1ncccc1C(=O)NCCNc1cc(Nc2ccc(N3CCOCC3)cc2)nc(SC)n1 [Compound 4a, 2-methoxy-N-(2-(2-(methylthio)-6-(4-morpholinophenylamino)pyrimidin-4-ylamino)ethyl)nicotinamide] |  | 23% |  | > 10 µM |  |  | 9800 nM |
| COc1ncccc1C(=O)NCCNc1cc(Nc2ccccc2)nc([S+](C)[O-])n1 (centres unmarked) [Compound 9a, 2-methoxy-N-(2-(2-(methylsulfinyl)-6-(phenylamino)pyrimidin-4-ylamino)ethyl)nicotinamide] | 0.484 µM |  |  |  | 14% | 83% |  |
| CSc1nc(Cl)cc(N(Cc2ccc(F)cc2)c2ccc(N3CCOCC3)cc2)n1 [Compound 10a, 6-chloro-N-(4-fluorobenzyl)-2-(methylthio)-N-(4-morpholinophenyl)pyrimidin-4-amine] | > 10 µM | 58% |  |  |  |  |  |
| CS(=O)(=O)c1nc(Nc2ccc(F)c(Cl)c2)cc(N2CCNCC2)n1 [Compound 26c, N-(3-chloro-4-fluorophenyl)-2-(methylsulfonyl)-6-(piperazin-1-yl)pyrimidin-4-amine] | 0.189 µM |  |  |  | 47% | 90% |  |
| CC(C)(C)OC(=O)N1CCN(c2cc(Nc3cc(F)c(F)c(F)c3)nc(S(C)(=O)=O)n2)CC1 [Compound 22h, tert-butyl 4-(2-(methylsulfonyl)-6-(3,4,5-trifluorophenylamino)pyrimidin-4-yl)piperazine-1-carboxylate] | 0.577 µM | 96% |  |  |  |  |  |
